According to PubChem BioAssay (NCI):
Where “and” joins values, the source holds several entries; their conditions need not be identical. Identical values can stand only once.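 Five concentrations, 48 hours, 96-well plates. Abbreviation: GI50, concentration required for 50% inhibition of growth. TGI: total growth inhibition.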

How the values were obtained:
Assay in all cases: NCI tumour cell line growth inhibition, 48 h
[1] = test system: MCF7 breast
[2] = test system: OVCAR-8 ovarian
[3] = test system: KM12 colon
[4] = test system: LOX IMVI melanoma
[5] = test system: SW-620 colon
[6] = test system: PC-3 prostate
[7] = test system: MOLT-4 leukemia
[8] = test system: CAKI-1 renal

Structure (SMILES) | GI50 [1] | TGI [1] | GI50 [2] | TGI [2] | GI50 [3] | TGI [3] | GI50 [4] | TGI [4] | GI50 [5] | TGI [5] | GI50 [6] | TGI [6] | GI50 [7] | TGI [7] | GI50 [8] | TGI [8]
COc1ccccc1CNCCCN1C(=O)c2ccc3c4c(ccc(c24)C1=O)C(=O)N(CCCNCc1ccccc1OC)C3=O | 108 nM | 0.329 µM | 0.137 µM | 2.26 µM | 116 nM | 0.272 µM | 135 nM | 0.365 µM | 86.1 nM | 0.298 µM | 0.214 µM | 0.608 µM | 0.112 µM | 0.455 µM | 0.233 µM | 0.725 µM
COc1cc2c3c(n(CCCN)c(=O)c2cc1OC)-c1ccc(N)cc1C3=O | 1660 nM | > 38.2 µM | 2.86 µM | 59.1 µM | 9260 nM | > 74.2 µM | 333 nM | 2.16 µM | 607 nM | 11.7 µM | 1.19 µM | 22.1 µM | 0.527 µM | 4.7 µM | 30.9 µM | > 82.3 µM
O=C1NC(=NCc2cccs2)O/C1=C\c1ccc2ncccc2c1 | 5020 nM | 23.7 µM | 4.27 µM | 16.6 µM | 7450 nM | 24.5 µM | 5870 nM | 19.4 µM | 4740 nM | 15.7 µM | 6.33 µM | > 25 µM | 4.88 µM | 12.4 µM | 3.86 µM | 12.3 µM
CN(C)c1ccc(/C=N/N=C(\C#N)[S][Sn]([Cl])([c]2ccccc2)[c]2ccccc2)cc1 | 283 nM | 1.35 µM | 2.15 µM | 4.91 µM | 1800 nM | 3.94 µM | 1040 nM | 2.31 µM | 853 nM | 2.45 µM | 2.94 µM | 8.38 µM | 0.876 µM | 5.32 µM | 1.27 µM | 2.56 µM
N#CC1=C(N)Oc2c(ccc3ccccc23)C1c1cc2ccccc2n2nnnc12 (centres undefined) | 471 nM | > 100 µM | 2.85 µM | > 100 µM | 628 nM | > 100 µM | 966 nM | > 100 µM | 467 nM | > 100 µM | 0.546 µM | > 100 µM | 0.557 µM | > 100 µM | 5.74 µM | > 100 µM
CN1CCN(C(=O)/C=C/c2ccc([N+](=O)[O-])o2)CC1 | 10900 nM | 38.1 µM | 18.5 µM | > 100 µM | 24000 nM | > 100 µM | 4460 nM | 17 µM | 15800 nM | 37.1 µM | 21.6 µM | > 100 µM | 10.7 µM | 93.4 µM | 10.6 µM | 34.3 µM
O=C1NC(c2ccccc2Cl)Nc2ccccc21 (centres undefined) |  | > 100 µM |  | > 100 µM |  | > 100 µM |  | > 100 µM |  | > 30.1 µM |  | > 72.6 µM |  | > 94.4 µM |  | 91.8 µM
CC(C)c1ccc2c(c1)CCC1C2CCCC1(C)NCc1ccccc1 (centres undefined) | 2530 nM | 6.76 µM | 13.5 µM | 28.9 µM | 3070 nM | 11.6 µM | 2270 nM | 7.12 µM | 2170 nM | 6.1 µM | 6.06 µM | 19.3 µM | 3.25 µM | 12.1 µM | 3.22 µM | 15.3 µM
O=C1c2ccccc2N1C(=O)c1ccccc1[N+](=O)[O-] |  | > 100 µM |  | > 100 µM |  | > 100 µM |  | 81.6 µM |  | > 100 µM |  | > 100 µM |  | > 100 µM |  | > 100 µM
CN(C)CCCC1(c2ccc(F)cc2)OCc2cc(-c3csc4ccccc34)ccc21 (centres undefined) | 1670 nM | 3.27 µM | 1.87 µM | 3.84 µM | 1710 nM | 3.16 µM | 1650 nM | 3.16 µM | 1630 nM | 3.22 µM | 1.73 µM | 3.29 µM | 1.79 µM | 3.52 µM | 1.62 µM | 3.05 µM
C/C(=C\c1csc(C)n1)[C@@H]1C[C@@H]2O[C@]2(C)CCC[C@H](C)[C@H](O)[C@@H](C)C(=O)C(C)(C)[C@@H](O)CC(=O)N1 | 0.0795 nM | 0.00037 µM | 0.000112 µM | 0.000184 µM | 0.141 nM | 0.000354 µM | 0.12 nM | 0.000226 µM | 0.16 nM | 0.00042 µM | < 1e-05 µM | < 1e-05 µM | 0.000115 µM | 0.000214 µM | 0.0137 µM | 0.0434 µM
COc1cc2c(cc1OCCN1CCN(CCN3C(=O)c4cccc5cccc(c45)C3=O)CC1)N=C[C@@H]1CCCN1C2=O | 15800 nM | 32.4 µM | 19.9 µM | 44.3 µM | 18200 nM | 39 µM | 32700 nM | > 100 µM | 19600 nM | 40 µM | 18.1 µM | 32 µM | 24.6 µM | 62.2 µM | 13.6 µM | 30.2 µM
CC1=C(C(=O)Nc2ccc3[nH]ncc3c2)C(c2ccc(F)cc2)N=C(c2ccc(C(F)(F)F)nc2)N1 (centres undefined) | 7710 nM | > 25 µM | 20.2 µM | > 25 µM | 16300 nM | > 25 µM | 8880 nM | > 25 µM | 11600 nM | > 25 µM | 13.1 µM | > 25 µM | 11.9 µM | > 25 µM | 11.9 µM | > 25 µM
CN(C)[C@@H]1C(=O)C(C(=O)NCc2nc3[nH]cnc(=S)c3[nH]2)=C(O)[C@@]2(O)C(=O)C3=C(O)c4c(O)cccc4[C@@](C)(O)[C@H]3C[C@@H]12 | 1570 nM | > 100 µM | 6.78 µM | > 100 µM | 5010 nM | > 100 µM | 1230 nM | > 100 µM | 17000 nM | > 100 µM | 29.7 µM | > 100 µM | 5.04 µM | > 100 µM | 3 µM | > 100 µM
CNS(=O)(=O)Nc1nccc(Cc2c(C)c3ccc(Oc4ncccn4)cc3oc2=O)c1F | 57000 nM and > 10000 nM | > 100 µM | 33.8 µM and > 10 µM | > 100 µM | 467 nM and 367 nM | > 100 µM | 356 nM and 977 nM | > 100 µM | 19.4 nM and 15.9 nM | > 100 µM | > 100 µM | > 100 µM | 53.4 µM and > 10 µM | > 100 µM | 1.34 µM | > 100 µM
